Patent US8841090B2 (priority 2006, dated 2014)
“Also recorded” adds a separate entry of the source. Where two headings read alike, the source gives them in different places.

Assays:
KmLat1 transporter [1] = molecular target: KmLat1 transporter (Kluyveromyces marxianus, UniProt A0ABX6EN84); assay: L-arabinose transport by KmLat1 expressed in S. cerevisiae, 14C-sugar uptake; assay type: cell-based; conditions: for Competition with L-arabinose transport by KmLat1: competing sugars; for Inhibition of L-arabinose transport by KmLat1: protonophores and H+-ATPase inhibitors
Sequence of KmLat1 transporter (Kluyveromyces marxianus, UniProt A0ABX6EN84) (A0ABX6EN84 entry or part of it): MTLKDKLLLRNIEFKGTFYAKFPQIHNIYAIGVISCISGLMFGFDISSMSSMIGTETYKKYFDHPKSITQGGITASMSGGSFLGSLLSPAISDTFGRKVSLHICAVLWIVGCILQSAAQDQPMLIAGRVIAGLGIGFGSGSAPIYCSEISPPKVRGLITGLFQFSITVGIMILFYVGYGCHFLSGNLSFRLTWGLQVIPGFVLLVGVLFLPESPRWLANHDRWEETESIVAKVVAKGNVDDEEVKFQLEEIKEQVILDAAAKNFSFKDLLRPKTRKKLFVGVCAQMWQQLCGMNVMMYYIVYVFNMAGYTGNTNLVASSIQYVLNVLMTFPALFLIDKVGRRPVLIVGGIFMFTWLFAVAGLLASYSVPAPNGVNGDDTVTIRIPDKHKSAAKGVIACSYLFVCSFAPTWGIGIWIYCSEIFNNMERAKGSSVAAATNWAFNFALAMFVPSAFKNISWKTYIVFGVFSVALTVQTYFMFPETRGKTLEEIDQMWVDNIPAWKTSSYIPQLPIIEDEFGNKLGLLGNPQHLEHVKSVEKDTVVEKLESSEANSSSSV
Description: (§1) Cells are collected in mid-growth and washed twice before suspension in water at 30 mg/ml. Uptake of L-(1-^14C)arabinose (54 mCi/mmol, Moravek Biochemicals Inc.) or D-(1-^14C) galactose (57 mCi/mmol, Amersham Biosciences) is measured as previously described by Stambuk et al. (2003). Assays are performed in 30 seconds to maintain initial rates after appropriate experiments to ensure uptake is linear for at least 1 minute. […] Inhibition and competition assays are performed as previously described by Stambuk et al, (2003).
(§2) The transport characteristics of the KmLat1 and the Gal2 transporters expressed in S. cerevisiae were compared.

PgLAT2 transporter = PgLAT2 transporter (Meyerozyma guilliermondii, UniProt A5DRF8); assay: L-arabinose transport by PgLAT2 transporter expressed in S. cerevisiae BFY605; conditions: for Competition with L-arabinose uptake by PgLAT2: competing sugars; for Inhibition of L-arabinose transport by PgLAT2: protonophores and H+-ATPase inhibitors
Description: (§3) Cells were collected in mid-growth and washed twice in water before suspension in water at about 30 mg/ml. […] Assays were performed in 5, 10, or 30 second periods to maintain initial rates. Appropriate experiments ensured uptake was linear for at least 1 minute. Transport activity was described as nmoles of labeled sugar transported per mg cell dry weight per minute.

Gal2 permease = molecular target: T1, Gal2 permease (Saccharomyces cerevisiae, UniProt P13181, G90S/H392R/M8V/S50P); assay type: cell-based, S. cerevisiae; conditions: for Competition with L-arabinose transport by Gal2 permease: competing sugars
T1 construct: expressed in transfected cells; host or cells: S. cerevisiae BFY597 (gal2Δ::HIS3, plasmids p138 and p42)
T1 sequence (P13181 whole entry M8V/S50P/G90S/H392R): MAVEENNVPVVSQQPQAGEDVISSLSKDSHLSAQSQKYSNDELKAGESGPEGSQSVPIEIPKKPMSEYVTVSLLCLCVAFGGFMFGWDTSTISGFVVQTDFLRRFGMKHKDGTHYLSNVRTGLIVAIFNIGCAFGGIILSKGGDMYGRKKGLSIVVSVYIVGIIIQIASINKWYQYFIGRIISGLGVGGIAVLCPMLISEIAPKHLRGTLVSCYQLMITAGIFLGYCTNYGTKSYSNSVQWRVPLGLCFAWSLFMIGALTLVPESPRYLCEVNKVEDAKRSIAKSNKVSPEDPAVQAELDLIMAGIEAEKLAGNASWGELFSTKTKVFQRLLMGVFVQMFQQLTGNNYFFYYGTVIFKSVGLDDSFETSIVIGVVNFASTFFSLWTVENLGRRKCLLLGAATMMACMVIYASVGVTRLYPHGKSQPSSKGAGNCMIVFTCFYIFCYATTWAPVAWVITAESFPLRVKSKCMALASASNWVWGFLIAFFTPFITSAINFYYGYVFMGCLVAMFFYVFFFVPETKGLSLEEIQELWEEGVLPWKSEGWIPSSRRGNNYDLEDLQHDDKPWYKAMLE
Description: as §1, §2

P. guilliermondii Y-2075 = assay: Sugar transport in wild type P. guilliermondii Y-2075 grown on L-arabinose; assay type: cell-based, Pichia guilliermondii
Description: as §3

KmLat1 transporter [2] = assay: L-arabinose transport by KmLat1 expressed in S. cerevisiae, 14C-sugar uptake; assay type: cell-based, Kluyveromyces marxianus
Description: as §1, §2

[3] = inhibitor NaN3 10 mM, others 5 mM, […] labeled L-arabinose, no inhibitor = 100
[4] = inhibitor NaN3 10 mM, others 5 mM, 0.33 mM labeled L-arabinose, none = 100
[5] = competing sugar 900 mM, 30 mM labeled L-arabinose, no sugar = 100

## OC[C@H]1O[C@H](O[C@H]2[C@H](O)[C@@H](O)C(O)O[C@@H]2CO)[C@H](O)[C@@H](O)[C@@H]1O (mixture of isomers) [Maltose]
KmLat1 transporter [1]
  Relative L-arabinose transport (%) KmLat1: 38%
  Competition with L-arabinose transport by KmLat1: out-competed
PgLAT2 transporter
  Relative L-arabinose transport S. cerevisiae (PgLAT2 transporter): 30
  Competition with L-arabinose uptake by PgLAT2: to a lesser extent

## N#CC(C#N)=NNc1cccc(Cl)c1 [CCCP]
Gal2 permease; [3]
  Relative L-arabinose transport (%) Gal2: 46%
KmLat1 transporter [1]
  Relative L-arabinose transport (%) KmLat1: 61%
  Inhibition of L-arabinose transport by KmLat1: not significantly inhibited
P. guilliermondii Y-2075; [4]
  Relative L-arabinose transport P. guilliermondii: 0
PgLAT2 transporter
  Relative L-arabinose transport S. cerevisiae (PgLAT2 transporter): 2
  Inhibition of L-arabinose transport by PgLAT2: significant inhibition

## C(=NC1CCCCC1)=NC1CCCCC1 [DCCD]
Gal2 permease; [3]
  Relative L-arabinose transport (%) Gal2: 69%
KmLat1 transporter [1]
  Relative L-arabinose transport (%) KmLat1: 55%
  Inhibition of L-arabinose transport by KmLat1: Neither is KmLat1 inhibited
P. guilliermondii Y-2075
  Relative L-arabinose transport P. guilliermondii: 22
PgLAT2 transporter
  Relative L-arabinose transport S. cerevisiae (PgLAT2 transporter): 36
  Inhibition of L-arabinose transport by PgLAT2: significant inhibition

## CC/C(=C(/CC)c1ccc(O)cc1)c1ccc(O)cc1 [DESB]
Gal2 permease; [3]
  Relative L-arabinose transport (%) Gal2: 81%
KmLat1 transporter [1]; [3]
  Relative L-arabinose transport (%) KmLat1: 100%
KmLat1 transporter [1]
  Inhibition of L-arabinose transport by KmLat1: Neither is KmLat1 inhibited
P. guilliermondii Y-2075; [4]
  Relative L-arabinose transport P. guilliermondii: 8
PgLAT2 transporter; [4]
  Relative L-arabinose transport S. cerevisiae (PgLAT2 transporter): 1
PgLAT2 transporter
  Inhibition of L-arabinose transport by PgLAT2: significant inhibition

## O=[N+]([O-])c1ccc(O)c([N+](=O)[O-])c1 [DNP]
Gal2 permease; [3]
  Relative L-arabinose transport (%) Gal2: 72%
KmLat1 transporter [1]; [3]
  Relative L-arabinose transport (%) KmLat1: 75%
KmLat1 transporter [1]
  Inhibition of L-arabinose transport by KmLat1: not significantly inhibited
P. guilliermondii Y-2075; [4]
  Relative L-arabinose transport P. guilliermondii: 0
PgLAT2 transporter; [4]
  Relative L-arabinose transport S. cerevisiae (PgLAT2 transporter): 4
PgLAT2 transporter
  Inhibition of L-arabinose transport by PgLAT2: significant inhibition

## O=C[C@H](O)[C@@H](O)[C@@H](O)[C@H](O)CO [Galactose]
Gal2 permease; BFY597
  Vmax for galactose transport by Gal2p: 76 nmol/mg/min
Gal2 permease; [5]
  Relative L-arabinose transport (%) Gal2: 3%
Gal2 permease
  Competition with L-arabinose transport by Gal2 permease: significantly reduced; also recorded: out-competed
Gal2 permease; read-out: Km for galactose transport by Gal2p, BFY597
  Km: 25 mM
KmLat1 transporter [2]; competing sugar 900 mM (maltose 450 mM), 30 mM labeled L-arabinose, no sugar = 100
  Relative L-arabinose transport (%) KmLat1: 23%
KmLat1 transporter [2]; competing sugars
  Competition with L-arabinose transport by KmLat1: out-competed
PgLAT2 transporter
  Competition with L-arabinose uptake by PgLAT2: inhibited

## [N-]=[N+]=[N-].[Na+] [NaN3]
Gal2 permease; [3]
  Relative L-arabinose transport (%) Gal2: 66%
KmLat1 transporter [1]; [3]
  Relative L-arabinose transport (%) KmLat1: 11%
KmLat1 transporter [1]
  Inhibition of L-arabinose transport by KmLat1: not significantly inhibited
P. guilliermondii Y-2075; [4]
  Relative L-arabinose transport P. guilliermondii: 1
PgLAT2 transporter; [4]
  Relative L-arabinose transport S. cerevisiae (PgLAT2 transporter): 16
PgLAT2 transporter
  Inhibition of L-arabinose transport by PgLAT2: significant inhibition

## O=C[C@H](O)[C@@H](O)[C@H](O)CO [Xylose]
Gal2 permease; [5]
  Relative L-arabinose transport (%) Gal2: 25%
Gal2 permease
  Competition with L-arabinose transport by Gal2 permease: significantly reduced
KmLat1 transporter [1]
  Relative L-arabinose transport (%) KmLat1: 25%
  Competition with L-arabinose transport by KmLat1: out-competed
P. guilliermondii Y-2075
  Relative L-arabinose transport P. guilliermondii: 4
P. guilliermondii Y-2075; 100× un-labeled competing sugar
  Reduction of uptake of labeled L-arabinose: 96%
PgLAT2 transporter
  Relative L-arabinose transport S. cerevisiae (PgLAT2 transporter): 0
  Competition with L-arabinose uptake by PgLAT2: inhibited
